Assay results published in US9884868B2, “TGF-beta inhibitors” (Rigel Pharmaceuticals, Inc., priority 2015, dated 2018).
Like-named read-outs stand apart in the source and are kept apart here.

Legend:
[1] = molecular target: HIS-TGF-βR2 WT (Homo sapiens (Human), UniProt P37173); experiment: HTRF probe displacement assay with HIS-TGF-βR2 WT
[2] = molecular target: HIS-TGF-βR1 T204D (Homo sapiens (Human), UniProt P36897, T204D); experiment: HTRF probe displacement assay with HIS-TGF-βR1 T204D
[3] = read-out: TGFBr2 IC50, HTRF probe displacement, 1 nM HIS-TGF-βR2 WT, 1 hour at room temperature
[4] = read-out: TGFbr1 IC50, HTRF probe displacement, 1 nM HIS-TGF-βR1 T204D, 1 hour at room temperature

Sequence of HIS-TGF-βR1 T204D (P36897 34-503 T204D): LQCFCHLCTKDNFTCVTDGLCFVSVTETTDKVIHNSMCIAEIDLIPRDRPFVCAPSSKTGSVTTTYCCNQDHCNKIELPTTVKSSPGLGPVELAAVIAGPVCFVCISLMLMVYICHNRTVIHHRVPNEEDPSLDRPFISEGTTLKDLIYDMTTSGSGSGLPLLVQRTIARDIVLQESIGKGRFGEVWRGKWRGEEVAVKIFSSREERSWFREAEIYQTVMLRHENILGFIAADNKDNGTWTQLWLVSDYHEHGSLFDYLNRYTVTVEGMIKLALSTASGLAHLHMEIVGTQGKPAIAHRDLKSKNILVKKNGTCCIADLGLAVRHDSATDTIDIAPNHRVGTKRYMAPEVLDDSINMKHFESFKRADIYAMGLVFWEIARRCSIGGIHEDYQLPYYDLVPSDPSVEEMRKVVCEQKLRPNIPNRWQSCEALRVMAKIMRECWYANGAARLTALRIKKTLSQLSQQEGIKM
Sequence of HIS-TGF-βR2 WT (P37173 23-567): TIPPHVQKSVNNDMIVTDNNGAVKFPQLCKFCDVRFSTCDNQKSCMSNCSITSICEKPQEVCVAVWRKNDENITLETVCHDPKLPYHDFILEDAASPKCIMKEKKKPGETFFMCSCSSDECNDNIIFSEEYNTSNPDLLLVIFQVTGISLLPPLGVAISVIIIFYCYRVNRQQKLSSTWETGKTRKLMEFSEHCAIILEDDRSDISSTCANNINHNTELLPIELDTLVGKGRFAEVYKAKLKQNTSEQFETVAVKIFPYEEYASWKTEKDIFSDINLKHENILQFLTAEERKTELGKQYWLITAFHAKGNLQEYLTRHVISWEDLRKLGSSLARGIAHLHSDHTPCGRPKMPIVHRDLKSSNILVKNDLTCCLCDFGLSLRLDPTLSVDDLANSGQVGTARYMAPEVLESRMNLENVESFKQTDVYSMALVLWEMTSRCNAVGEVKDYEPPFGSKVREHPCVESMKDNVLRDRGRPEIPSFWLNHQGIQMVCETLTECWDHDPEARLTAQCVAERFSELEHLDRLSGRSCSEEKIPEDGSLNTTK

SMILES	IC50 [1, 3] [nM]	IC50 [2, 4] [nM]	IC50 [1] [nM]	IC50 [2] [nM]
NC(=O)c1cnc2ccc(-c3c(-c4ccc(F)c(Cl)c4)ncn3CCN3CCCC3)nn12 [143′, 6-(4-(3-chloro-4-fluorophenyl)-1-(2-(pyrrolidin-1-yl)ethyl)-1H-imidazol-5-yl)imidazo[1,2-b]pyridazine-3-carboxamide]	> 15000	9.1	–	–
N#Cc1cnc2ccc(-c3c(-c4ccccc4C(F)(F)F)ncn3CC(F)F)nn12 [246′, 6-(1-(2,2-difluoroethyl)-4-(2-(trifluoromethyl)phenyl)-1H-imidazol-5-yl)imidazo[1,2-b]pyridazine-3-carbonitrile]	> 15000	144	–	–
N#Cc1cnc2ccc(-c3c(-c4ccc(F)c(Cl)c4)ncn3C3CC(F)(F)C3)cn12 [99′, 6-(4-(3-chloro-4-fluorophenyl)-1-(3,3-difluorocyclobutyl)-1H-imidazol-5-yl)imidazo[1,2-a]pyridine-3-carbonitrile]	> 15000	65.7	–	–
COCC(C1CC1)n1cnc(-c2ccc(F)cc2)c1-c1ccc2ncc(C#N)n2n1 (stereo not shown) [16′, 6-(1-(1-cyclopropyl-2-methoxyethyl)-4-(4-fluorophenyl)-1H-imidazol-5-yl)imidazo[1,2-b]pyridazine-3-carbonitrile]	–	–	> 15000	2.3
NC(=O)c1cnc2ccc(-c3c(-c4ccc(F)c(Cl)c4)ncn3C3CC(F)(F)C3)nn12 [118′, 6-(4-(3-chloro-4-fluorophenyl)-1-(3,3-difluorocyclobutyl)-1H-imidazol-5-yl)imidazo[1,2-b]pyridazine-3-carboxamide]	> 15000	1.4	–	–
N#Cc1cnc2ccc(-c3c(-c4ccc(F)c(Cl)c4)ncn3CC(O)C(F)(F)F)nn12 (stereo not shown) [55′, 6-(4-(3-chloro-4-fluorophenyl)-1-(3,3,3-trifluoro-2-hydroxypropyl)-1H-imidazol-5-yl)imidazo[1,2-b]pyridazine-3-carbonitrile]	–	–	> 15000	6.7
N#Cc1cnc2ccc(-c3c(-c4ccc(F)cc4)ncn3[C@]34CC5CC(C[C@](O)(C5)C3)C4)nn12 (single isomer, unassigned) [269′]	> 15000	1200	–	–
CC(C)Oc1ccc(-c2ncn(CC(F)F)c2-c2ccc3ncc(C#N)n3n2)cc1 [263′, 6-(1-(2,2-difluoroethyl)-4-(4-isopropoxyphenyl)-1H-imidazol-5-yl)imidazo[1,2-b]pyridazine-3-carbonitrile]	> 15000	171	–	–
CC(=O)Nc1cccc(-c2ncn(CC(F)F)c2-c2ccc3ncc(C#N)n3n2)c1 [245′, N-(3-(5-(3-cyanoimidazo[1,2-b]pyridazin-6-yl)-1-(2,2-difluoroethyl)-1H-imidazol-4-yl)phenyl)acetamide]	> 15000	49.1	–	–
O=C(NC1CC1)c1cnc2ccc(-c3c(-c4ccc(F)cc4)ncn3CC(F)F)cn12 [Example 279′, N-cyclopropyl-6-(1-(2,2-difluoroethyl)-4-(4-fluorophenyl)-1H-imidazol-5-yl)imidazo[1,2-a]pyridine-3-carboxamide]	> 15000	9.5	–	–
Fc1ccc(-c2ncn(CC(F)F)c2-c2ccc3ncc(CNC4CC(F)(F)C4)n3c2)cc1 [276′, N-((6-(1-(2,2-difluoroethyl)-4-(4-fluorophenyl)-1H-imidazol-5-yl)imidazo[1,2-a]pyridin-3-yl)methyl)-3,3-difluorocyclobutanamine]	> 15000	988	–	–
N#Cc1cnc2ccc(-c3c(-c4ccc(F)cc4)ncn3C3CN(C(=O)C4CC4)C3)nn12 [Example 192′, 6-(1-(1-(cyclopropanecarbonyl)azetidin-3-yl)-4-(4-fluorophenyl)-1H-imidazol-5-yl)imidazo[1,2-b]pyridazine-3-carbonitrile]	> 15000	229	–	–
N#Cc1cnc2ccc(-c3c(-c4ccc(F)c(Cl)c4)ncn3CCN3CCOCC3)cn12 [95′, 6-(4-(3-chloro-4-fluorophenyl)-1-(2-morpholinoethyl)-1H-imidazol-5-yl)imidazo[1,2-c]pyridine-3-carbonitrile]	> 15000	76.8	–	–
NC(=O)c1cnc2ccc(-c3c(-c4ccc(F)c(Cl)c4)ncn3CCN3CCOCC3)cn12 [120′, 6-(4-(3-chloro-4-fluorophenyl)-1-(2-morpholinoethyl)-1H-imidazol-5-yl)imidazo[1,2-a]pyridine-3-carboxamide]	> 15000	6.5	–	–
NC(=O)c1cnc2ccc(-c3c(-c4ccc(F)c(Cl)c4)ncn3C3CC(F)(F)C3)cn12 [121′, 6-(4-(3-chloro-4-fluorophenyl)-1-(3,3-difluorocyclobutyl)-1H-imidazol-5-yl)imidazo[1,2-a]pyridine-3-carboxamide]	> 15000	1.1	–	–
COC(=O)N1CCn2c(nc(-c3ccc(F)cc3)c2-c2ccc3ncc(C(N)=O)n3c2)C1 [Example 291′, methyl 3-(3-carbamoylimidazo[1,2-a]pyridin-6-yl)-2-(4-fluorophenyl)-5,6-dihydroimidazo[1,2-a]pyrazine-7(8H)-carboxylate]	> 15000	30.5	–	–
CS(=O)(=O)Nc1cccc(-c2ncn(CC(F)F)c2-c2ccc3ncc(C#N)n3n2)c1 [252′, N-(3-(5-(3-cyanoimidazo[1,2-b]pyridazin-6-yl)-1-(2,2-difluoroethyl)-1H-imidazol-4-yl)phenyl)methanesulfonamide]	> 15000	7.7	–	–
N#Cc1cnc2ccc(-c3c(-c4ccc(F)cc4)ncn3[C@H](CO)CC(F)(F)F)nn12 [29′, (S)-6-(4-(4-fluorophenyl)-1-(4,4,4-trifluoro-1-hydroxybutan-2-yl)-1H-imidazol-5-yl)imidazo[1,2-b]pyridazine-3-carbonitrile]	> 15000	6.4	–	–
N#Cc1cnc2ccc(-c3c(-c4ccc(F)cc4)ncn3CC(O)C(F)(F)F)cn12 (stereo not shown) [93′, 6-(4-(4-fluorophenyl)-1-(3,3,3-trifluoro-2-hydroxypropyl)-1H-imidazol-5-yl)imidazo[1,2-a]pyridine-3-carbonitrile]	–	–	> 15000	576
NC(=O)c1cnc2ccc(-c3c(-c4ccc(F)cc4)ncn3C3CC(F)(F)C3)cn12 [180′, 6-(1-(3,3-difluorocyclobutyl)-4-(4-fluorophenyl)-1H-imidazol-5-yl)imidazo[1,2-a]pyridine-3-carboxamide]	> 15000	3.7	–	–
NC(=O)c1cnc2ccc(-c3c(-c4ccc(F)cc4)ncn3C3CCC(F)(F)CC3)nn12 [110′, 6-(1-(4,4-difluorocyclohexyl)-4-(4-fluorophenyl)-1H-imidazol-5-yl)imidazo[1,2-b]pyridazine-3-carboxamide]	> 15000	20.5	–	–

Further lines, results first:

IC50 [1, 3] [nM]	IC50 [2, 4] [nM]	IC50 [1] [nM]	IC50 [2] [nM]	SMILES
> 15000	31.9	–	–	CN(C)CCCn1cnc(-c2ccc(F)cc2)c1-c1ccc2ncc(C(N)=O)n2c1 [163′, 6-(1-(3-(dimethylamino)propyl)-4-(4-fluorophenyl)-1H-imidazol-5-yl)imidazo[1,2-a]pyridine-3-carboxamide]
> 15000	17.9	–	–	N#Cc1cnc2ccc(-c3c(-c4ccc(F)cc4)ncn3C3CCC(F)(F)CC3)nn12 [8′, 6-(1-(4,4-difluorocyclohexyl)-4-(4-fluorophenyl)-1H-imidazol-5-yl)imidazo[1,2-b]pyridazine-3-carbonitrile]
> 15000	436	–	–	CC(C)(C)NC(=O)N1CC(n2cnc(-c3ccc(F)cc3)c2-c2ccc3ncc(C(N)=O)n3n2)C1 [Example 195′, 6-(1-(1-(tert-butylcarbamoyl)azetidin-3-yl)-4-(4-fluorophenyl)-1H-imidazol-5-yl)imidazo[1,2-b]pyridazine-3-carboxamide]
> 15000	546	–	–	N#Cc1cnc2ccc(-c3c(-c4ccc(C(F)(F)F)cc4)ncn3CC(F)F)nn12 [244′, 6-(1-(2,2-difluoroethyl)-4-(4-(trifluoromethyl)phenyl)-1H-imidazol-5-yl)imidazo[1,2-b]pyridazine-3-carbonitrile]
> 15000	3.2	–	–	NC(=O)CNC(=O)c1cnc2ccc(-c3c(-c4ccc(F)cc4)ncn3CC(F)F)cn12 [280′]
> 15000	227	–	–	CC(C)(C)NC(=O)N1CC(n2cnc(-c3ccc(F)cc3)c2-c2ccc3ncc(C#N)n3n2)C1 [Example 193′, N-(tert-butyl)-3-(5-(3-cyanoimidazo[1,2-b]pyridazin-6-yl)-4-(4-fluorophenyl)-1H-imidazol-1-yl)azetidine-1-carboxamide]
> 15000	376	–	–	Fc1ccc(-c2ncn(CC(F)F)c2-c2ccc3ncc(N4CCOCC4)n3c2)cc1 [Example 289′, 4-(6-(1-(2,2-difluoroethyl)-4-(4-fluorophenyl)-1H-imidazol-5-yl)imidazo[1,2-a]pyridin-3-yl)morpholine]
> 15000	1.8	–	–	NC(=O)c1cnc2ccc(-c3c(-c4ccc(F)c(Cl)c4)ncn3C(CO)CO)cn12 [122′, 6-(4-(3-chloro-4-fluorophenyl)-1-(1,3-dihydroxypropan-2-yl)-1H-imidazol-5-yl)imidazo[1,2-a]pyridine-3-carboxamide]
> 15000	72.7	–	–	CC(=O)N1CC(n2cnc(-c3ccc(F)cc3)c2-c2ccc3ncc(C#N)n3n2)C1 [Example 191′, 6-(1-(1-acetylazetidin-3-yl)-4-(4-fluorophenyl)-1H-imidazol-5-yl)imidazo[1,2-b]pyridazine-3-carbonitrile]
> 15000	21.3	–	–	NC(=O)c1cnc2ccc(-c3c(-c4ccc(F)cc4)ncn3CC(O)C(F)(F)F)cn12 (stereo not shown) [169′, 6-(4-(4-fluorophenyl)-1-(3,3,3-trifluoro-2-hydroxypropyl)-1H-imidazol-5-yl)imidazo[1,2-a]pyridine-3-carboxamide]
> 15000	2.1	–	–	COCC(C1CC1)n1cnc(-c2ccc(F)cc2)c1-c1ccc2ncc(C(N)=O)n2n1 (stereo not shown) [130′, 6-(1-(1-cyclopropyl-2-methoxyethyl)-4-(4-fluorophenyl)-1H-imidazol-5-yl)imidazo[1,2-b]pyridazine-3-carboxamide]
